Where two headings read alike, the source gives them in different places. Non-standard residues stand in square brackets, D forms with d.
Assays:
[1] = tested on: human RBCs; assay: Inhibition of CDC-mediated hemolysis; format: cell-based; details: data not shown
[2] = SPR, mean ± SEM, cited from earlier work
Description: (§1) Table 3 Binding of OxP-11D and D-4F to oxidized and nonoxidized (phospho)lipids and sterols. | column: apoA-I; KD ± SEM (M) / D-4F

[3] = biological target: T1, Bovine albumin (Bos taurus, UniProt P02769); details: SPR; mean ± SEM; read-out: KD ± SEM, bovine albumin (control); cited from earlier work
T1 construct: purchased Sigma-Aldrich
T1 sequence (P02769 25-607): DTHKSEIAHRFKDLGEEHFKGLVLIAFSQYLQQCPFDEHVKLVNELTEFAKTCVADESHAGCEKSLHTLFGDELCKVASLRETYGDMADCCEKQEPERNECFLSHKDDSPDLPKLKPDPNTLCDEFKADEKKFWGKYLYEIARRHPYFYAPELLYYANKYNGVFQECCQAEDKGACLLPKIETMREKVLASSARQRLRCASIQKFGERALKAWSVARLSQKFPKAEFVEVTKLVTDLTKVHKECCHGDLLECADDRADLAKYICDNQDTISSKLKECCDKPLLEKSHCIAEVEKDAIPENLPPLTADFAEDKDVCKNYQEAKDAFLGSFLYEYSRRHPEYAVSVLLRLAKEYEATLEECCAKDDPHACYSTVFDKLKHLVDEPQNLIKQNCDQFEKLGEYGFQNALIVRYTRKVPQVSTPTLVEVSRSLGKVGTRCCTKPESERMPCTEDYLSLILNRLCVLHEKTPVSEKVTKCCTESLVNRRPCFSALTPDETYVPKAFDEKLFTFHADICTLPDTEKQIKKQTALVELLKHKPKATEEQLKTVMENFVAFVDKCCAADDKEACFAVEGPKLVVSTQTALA
Description: as §1

[4] = tested on: apoE deficient mice; assay: In vivo activity in apoE deficient mice: HDL inflammatory index
Description: (§2) As previously described, [64], HAEC cells were treated with native LDL (250 µg/ml) in the absence or presence of HDL or tested peptides for 8 h. After these cultures were washed, the medium was replaced by fresh Medium 199 and the cultures were incubated for an additional 8 h. This culture medium was collected and assayed for monocyte chemotactic activity using chambers purchased from Neuroprobe (Cabin John, MD). After monocytes were added to the upper compartment, the chamber was incubated for 60 min at 37°C and subsequently disassembled. The membrane was rinsed, air dried, fixed with 1% glutaraldehyde, stained with 0.1% crystal violet dye, and 12 standardized high power fields were examined microscopically. The number of migrated monocytes was expressed as the mean ±SD of monocytes counted. Values obtained in the absence of HDL were normalized to a value of 1.0. Normalized values >1.0 after HDL addition were considered to be pro-inflammatory, and values <1.0 as being anti-inflammatory.
ApoE null mice on a C57BL/6J background, originally from Jackson Laboratories (Bar Harbor, ME), were maintained in a breeding colony in the Department of Laboratory and Animal Medicine at the David Geffen School of Medicine at UCLA. The mice were maintained on a chow diet (Ralston Purina, St. Louis, MO).
Six hours later, and with continued fasting, blood was removed from the retro-orbital sinus under mild isoflurane anesthesia, and anticoagulated with heparin (2.5 U/ml). Plasma was obtained and fractionated by FPLC. HDL-containing fractions were tested in HAEC cultures for their ability to inhibit LDL-induced monocyte chemotactic activity. All procedures conformed to regulations of the UCLA Animal Research Committee. An HDL inflammatory index was determined using the standard monocyte chemotaxis assay. Indices >1 were interpreted as pro-inflammatory, and indices <1 as anti-inflammatory.

[5] = tested on: LDL-induced monocyte chemotaxis in cultured human aortic endothelial cells (HAEC); assay: Monocyte chemotaxis assay (LDL-treated HAEC cultures); format: cell-based; details: for Monocyte chemotactic activity, Inflammatory Index (II): peptide 1 µg/ml, HAEC treated with LDL 250 µg/ml 8 h, standardized to LDL, II<1 anti-inflammatory, Figure 1; for Monocyte chemotactic activity, dose response: Figure 2
Description: Normal human monocytes were isolated as previously described. Human aortic endothelial cells (HAEC) were isolated and maintained as previously reported. Acquisition and use of these cells was in accordance with protocols approved by the UCLA Human Research Subject Protection Committee.
as §2

[6] = read-out: KD ± SEM, 12(S)-HPETE
[7] = read-out: KD ± SEM, 13(S)-HPODE
[8] = read-out: KD ± SEM, 15(S)-HPETE
[9] = read-out: KD ± SEM, arachidonic acid
[10] = read-out: KD ± SEM, linoleic acid
[11] = read-out: KD ± SEM, palmitic acid
[12] = peptide 0.01 µg/ml (10 ng/ml) versus 1 µg/ml
[13] = peptide 0.1 µg/ml versus 1 µg/ml

| Substance | Kd ([2]; read-out: KD ± SEM, 5(S)-HPETE) | Kd ([2]; read-out: KD ± SEM, 9(S)-HODE) | Kd ([2]; read-out: KD ± SEM, 12(S)-HETE) | Kd [2, 6] | Kd ([2]; read-out: KD ± SEM, 13(S)-HODE) | Kd [2, 7] | Kd ([2]; read-out: KD ± SEM, 15(S)-HETE) | Kd [2, 8] | Kd ([2]; read-out: KD ± SEM, KOdiA-PC) | Kd ([2]; read-out: KD ± SEM, PEIPC) | Kd ([2]; read-out: KD ± SEM, POVPC) | Kd [2, 9] | Kd [2, 10] | Kd [2, 11] | Kd [3] | Monocyte chemotactic activity, Inflammatory Index (II) [5] | Monocyte chemotactic activity, dose response [5, 12] | Monocyte chemotactic activity, dose response [5, 13] | other results |
| --- | --- | --- | --- | --- | --- | --- | --- | --- | --- | --- | --- | --- | --- | --- | --- | --- | --- | --- | --- |
| RE-Ctb-Thr-G-Leu-Ala-Trp-E-Trp-Trp-RT-Val-NH2 [OxP-2] | – | – | – | – | – | – | – | – | – | – | – | – | – | – | – | – | – | – | Inhibition of CDC-mediated hemolysis [1]: enhanced the peptide's ability to inhibit CDC-mediated hemolysis |
| apoA-I: human apoA-I | 1600 ± 0.3 µM | 1300 ± 0.5 µM | 850 ± 0.033 µM | 820 ± 0.027 µM | 1800 ± 0.3 µM | 1200 ± 0.6 µM | 1300 ± 0.1 µM | 1000 ± 0.2 µM | 21 µM | 51 µM | 31 µM | 0.01 µM | 0.0065 µM | 2 µM | 0.021 µM | – | – | – | KD ± SEM, 4β-hydroxycholesterol [2]: BND; KD ± SEM, 20(S)-hydroxycholesterol [2]: BND; KD ± SEM, 22(S)-hydroxycholesterol [2]: BND; KD ± SEM, 24(S)-hydroxycholesterol [2]: BND; KD ± SEM, 25-hydroxycholesterol [2]: BND; KD ± SEM, cholesterol [2]: BND |
| Ac-DWFKAFYDKVAEKFKEAF-NH2 (Ac-[dD][dW][dF][dK][dA][dF][dY][dD][dK][dV][dA][dE][dK][dF][dK][dE][dA][dF]-NH2) [D-4F, a prominent apoA-I-mimetic peptide, Ac-…-NH2, reference compound] | – | – | – | – | – | – | – | – | – | – | – | – | – | – | 3.9 µM | – | – | – | – |
| Ac-DWFKAFYDKVAEKFKEAF-NH2 [D-4F, a prominent apoA-I-mimetic peptide, Ac-…-NH2, reference compound] | 0.018 µM | 0.015 µM | 0.018 µM | 0.17 µM | 0.011 µM | 0.021 µM | 0.022 µM | 0.051 µM | 0.00058 µM | 6e-05 µM | 0.0024 µM | 0.012 µM | 0.015 µM | 0.67 µM | – | very similar activity | – | – | HDL Inflammatory Index in vivo ([4]; 1 mg/kg subcutaneously, fasting female apoE deficient mice, HDL isolated 6 h after dose, normalized to LDL, Figure 3): equally effective; Kd ([2]; read-out: KD ± SEM, 4β-hydroxycholesterol): 31 µM; Kd ([2]; read-out: KD ± SEM, 20(S)-hydroxycholesterol): 3.9 µM; Kd ([2]; read-out: KD ± SEM, 22(S)-hydroxycholesterol): 15 µM; Kd ([2]; read-out: KD ± SEM, 24(S)-hydroxycholesterol): 4.3 µM; Kd ([2]; read-out: KD ± SEM, 25-hydroxycholesterol): 2.4 µM; Kd ([2]; read-out: KD ± SEM, PGPC): 0.0063 µM; Kd ([2]; read-out: KD ± SEM, cholesterol): 0.092 µM |
| Aib-RE-Ctb-Val-R-Leu-Val-Trp-E-Trp-Trp-RE-Val-NH2 [OxP-13] | – | – | – | – | – | – | – | – | – | – | – | – | – | – | – | very similar activity | reduced activity substantially | relatively small decrease in activity | – |
| RE-Dpa-Thr-G-Leu-Ala-Trp-E-Trp-Trp-RT-Val-NH2 [OxP-11] | – | – | – | – | – | – | – | – | – | – | – | – | – | – | – | very similar activity | reduced activity substantially | relatively small decrease in activity | HDL Inflammatory Index in vivo ([4]; lower doses 0.5 and 0.1 mg/kg subcutaneously, apoE deficient mice, Figure 3B): considerably less active than L-4F |
